pIC50: −log10 of the molar value. Counter-ions that a name gives are not always drawn.
Columns and labels:
RON (human) = RON (human) (Homo sapiens, UniProt Q04912); test: RON kinase AlphaScreen assay (Km of ATP); format: biochemical; conditions: ATP at Km; at least duplicate experiments
Outline: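 Human RON phosphorylated biotinylated poly(Glu,Tyr) (200 ng/μL) at Km ATP in 50 mM HEPES pH 7.4, 12.5 mM MgCl2, 1% glycerol, 0.334 mM vanadate, 1% DMSO. Reaction ran 30 min at RT after enzyme addition. Product was detected by AlphaScreen with PT66 beads after 1 h.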

MET (human) = MET (human) (Homo sapiens, UniProt P08581); test: MET kinase AlphaScreen assay (Km of ATP); format: biochemical; conditions: ATP at Km; at least duplicate experiments
MET (human), sequence (P08581 25-1390): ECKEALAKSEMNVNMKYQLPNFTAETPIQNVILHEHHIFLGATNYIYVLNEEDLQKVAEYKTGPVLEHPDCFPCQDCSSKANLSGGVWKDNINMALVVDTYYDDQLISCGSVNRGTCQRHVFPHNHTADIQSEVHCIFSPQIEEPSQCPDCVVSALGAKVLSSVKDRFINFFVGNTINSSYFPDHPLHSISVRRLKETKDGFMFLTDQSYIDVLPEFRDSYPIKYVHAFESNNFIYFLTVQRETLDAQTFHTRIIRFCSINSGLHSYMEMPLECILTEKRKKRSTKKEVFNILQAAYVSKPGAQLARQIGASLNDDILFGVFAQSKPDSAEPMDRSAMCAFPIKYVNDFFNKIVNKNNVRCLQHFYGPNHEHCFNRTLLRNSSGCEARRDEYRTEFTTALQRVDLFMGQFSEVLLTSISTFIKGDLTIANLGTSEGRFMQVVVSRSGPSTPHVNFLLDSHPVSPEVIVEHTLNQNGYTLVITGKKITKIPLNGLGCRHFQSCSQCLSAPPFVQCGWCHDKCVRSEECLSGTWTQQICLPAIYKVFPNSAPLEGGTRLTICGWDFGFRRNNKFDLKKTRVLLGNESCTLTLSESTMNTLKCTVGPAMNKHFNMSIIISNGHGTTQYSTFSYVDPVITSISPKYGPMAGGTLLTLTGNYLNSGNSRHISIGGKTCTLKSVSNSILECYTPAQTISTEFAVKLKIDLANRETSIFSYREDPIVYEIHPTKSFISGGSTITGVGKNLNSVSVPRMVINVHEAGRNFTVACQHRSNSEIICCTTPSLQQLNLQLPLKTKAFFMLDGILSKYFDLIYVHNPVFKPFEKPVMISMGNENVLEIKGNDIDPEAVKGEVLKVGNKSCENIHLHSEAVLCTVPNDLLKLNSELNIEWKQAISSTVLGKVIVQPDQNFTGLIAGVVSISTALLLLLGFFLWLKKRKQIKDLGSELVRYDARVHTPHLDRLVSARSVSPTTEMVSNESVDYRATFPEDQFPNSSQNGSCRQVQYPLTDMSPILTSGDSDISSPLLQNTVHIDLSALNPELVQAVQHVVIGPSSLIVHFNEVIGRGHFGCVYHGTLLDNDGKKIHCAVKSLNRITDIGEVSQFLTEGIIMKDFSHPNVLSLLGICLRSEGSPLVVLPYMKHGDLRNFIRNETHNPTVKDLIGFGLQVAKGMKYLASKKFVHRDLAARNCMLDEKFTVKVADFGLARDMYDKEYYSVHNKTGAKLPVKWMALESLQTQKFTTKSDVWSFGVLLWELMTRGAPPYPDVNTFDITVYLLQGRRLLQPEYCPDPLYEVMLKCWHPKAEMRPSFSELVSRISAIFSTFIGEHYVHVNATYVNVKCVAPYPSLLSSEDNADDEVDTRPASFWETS
Outline: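 Biotinylated poly(Glu,Tyr) (200 ng/μL) phosphorylated by MET with ATP at an enzyme-optimized level, in 50 mM HEPES pH 7.4 with Mg2+/Mn2+ and vanadate, 1% DMSO. Reaction runs 60 min at RT. PT66 AlphaScreen donor/acceptor beads are added and signal is read after 1 h.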

RON (human), sequence (Q04912 25-1400): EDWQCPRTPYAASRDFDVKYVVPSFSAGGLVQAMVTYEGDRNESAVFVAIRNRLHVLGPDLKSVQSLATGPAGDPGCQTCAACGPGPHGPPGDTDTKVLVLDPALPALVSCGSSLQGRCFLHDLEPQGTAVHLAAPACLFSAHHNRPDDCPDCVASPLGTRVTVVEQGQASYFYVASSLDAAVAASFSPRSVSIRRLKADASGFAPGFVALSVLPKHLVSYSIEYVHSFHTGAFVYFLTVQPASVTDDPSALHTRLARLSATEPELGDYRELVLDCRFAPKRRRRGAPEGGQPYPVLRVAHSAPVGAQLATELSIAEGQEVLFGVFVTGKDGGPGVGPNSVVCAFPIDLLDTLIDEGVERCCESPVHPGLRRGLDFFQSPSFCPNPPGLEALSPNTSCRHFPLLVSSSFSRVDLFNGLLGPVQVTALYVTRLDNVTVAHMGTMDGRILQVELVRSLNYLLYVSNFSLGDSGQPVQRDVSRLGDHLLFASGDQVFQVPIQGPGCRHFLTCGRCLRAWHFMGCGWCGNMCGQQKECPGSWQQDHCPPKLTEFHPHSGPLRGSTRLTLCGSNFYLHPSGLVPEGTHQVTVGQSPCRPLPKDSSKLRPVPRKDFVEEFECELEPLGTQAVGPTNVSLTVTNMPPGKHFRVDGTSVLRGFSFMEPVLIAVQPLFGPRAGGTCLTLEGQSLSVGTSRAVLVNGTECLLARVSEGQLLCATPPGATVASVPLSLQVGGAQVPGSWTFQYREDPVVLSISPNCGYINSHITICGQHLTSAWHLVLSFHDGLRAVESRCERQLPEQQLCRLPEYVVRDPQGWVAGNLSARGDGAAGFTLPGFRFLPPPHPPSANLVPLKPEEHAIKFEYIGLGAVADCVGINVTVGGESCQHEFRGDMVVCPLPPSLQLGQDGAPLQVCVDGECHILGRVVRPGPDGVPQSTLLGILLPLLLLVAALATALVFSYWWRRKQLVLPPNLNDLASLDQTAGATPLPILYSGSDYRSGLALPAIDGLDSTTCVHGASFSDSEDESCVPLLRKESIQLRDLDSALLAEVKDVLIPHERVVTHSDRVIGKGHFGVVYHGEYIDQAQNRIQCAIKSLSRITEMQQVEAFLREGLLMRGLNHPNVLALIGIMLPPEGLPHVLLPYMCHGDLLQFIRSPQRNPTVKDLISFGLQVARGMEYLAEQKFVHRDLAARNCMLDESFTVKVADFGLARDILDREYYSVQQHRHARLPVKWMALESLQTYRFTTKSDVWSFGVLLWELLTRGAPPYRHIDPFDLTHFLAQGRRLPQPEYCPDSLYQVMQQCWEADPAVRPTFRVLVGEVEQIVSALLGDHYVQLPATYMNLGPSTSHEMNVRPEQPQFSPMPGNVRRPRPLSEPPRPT

SMILES | pIC50 (RON (human)) | pIC50 (MET (human))
Nc1ncc(-c2cnn(C3CCN(CC(=O)N4CCC4)CC3)c2)cc1-c1nc2ccccc2s1 [Example 165, 2-{4-[4-(6-Amino-5-benzothiazol-2-ylpyridin-3-yl)-pyrazol-1-yl]-piperidin-1-yl}-1-azetidin-1-ylethanone] | 6.00 to 7.00 | 6.00 to 7.00
Nc1ncc(-c2cnn(C3CCN(CC(=O)N4CCCC4)CC3)c2)cc1-c1nc2ccccc2s1 [Example 166, 2-{4-[4-(6-Amino-5-benzothiazol-2-ylpyridin-3-yl)-pyrazol-1-yl]-piperidin-1-yl}-1-pyrrolidin-1-ylethanone] | 6.00 to 7.00 | ≥ 7.00
Nc1ncc(-c2cnn(C3CCN(CC(=O)N4CCC(O)C4)CC3)c2)cc1-c1nc2ccccc2s1 (stereo not drawn) [Example 167, 2-{4-[4-(6-Amino-5-benzothiazol-2-ylpyridin-3-yl)-pyrazol-1-yl]-piperidin-1-yl}-1-(3-hydroxypyrrolidin-1-yl)ethanone] | 6.00 to 7.00 | ≥ 7.00
Nc1ncc(-c2cnn(C3CCN(CC(=O)N4CCCCC4)CC3)c2)cc1-c1nc2ccccc2s1 [Example 168, 2-{4-[4-(6-Amino-5-benzothiazol-2-ylpyridin-3-yl)-pyrazol-1-yl]-piperidin-1-yl}-1-piperidin-1-ylethanone] | 6.00 to 7.00 | 6.00 to 7.00
Nc1ncc(-c2cnn(C3CCN(CC(=O)N4CCC(O)CC4)CC3)c2)cc1-c1nc2ccccc2s1 [Example 169, 2-{4-[4-(6-Amino-5-benzothiazol-2-ylpyridin-3-yl)-pyrazol-1-yl]-piperidin-1-yl}-1-(4-hydroxypiperidin-1-yl)ethanone] | 6.00 to 7.00 | ≥ 7.00
Nc1ncc(-c2cnn(C3CCN(CC(=O)N4CCOCC4)CC3)c2)cc1-c1nc2ccccc2s1 [Example 170, 2-{4-[4-(6-Amino-5-benzothiazol-2-ylpyridin-3-yl)-pyrazol-1-yl]-piperidin-1-yl}-1-morpholin-4-ylethanone] | 6.00 to 7.00 | ≥ 7.00
Nc1ncc(-c2cnn(C3CCN(CC(=O)NCCO)CC3)c2)cc1-c1nc2ccccc2s1 [Example 171, 2-{4-[4-(6-Amino-5-benzothiazol-2-ylpyridin-3-yl)-pyrazol-1-yl]-piperidin-1-yl}-N-(2-hydroxyethyl)-acetamide] | 6.00 to 7.00 | ≥ 7.00
COCCNC(=O)CN1CCC(n2cc(-c3cnc(N)c(-c4nc5ccccc5s4)c3)cn2)CC1 [Example 172, 2-{4-[4-(6-Amino-5-benzothiazol-2-ylpyridin-3-yl)-pyrazol-1-yl]-piperidin-1-yl}-N-(2-methoxyethyl)-acetamide] | 6.00 to 7.00 | 6.00 to 7.00
COCCN(CCOC)C(=O)CN1CCC(n2cc(-c3cnc(N)c(-c4nc5ccccc5s4)c3)cn2)CC1 [Example 173, 2-{4-[4-(6-Amino-5-benzothiazol-2-ylpyridin-3-yl)-pyrazol-1-yl]-piperidin-1-yl}-N,N-bis-(2-methoxyethyl)-acetamide] | 6.00 to 7.00 | 6.00 to 7.00
Nc1ncc(-c2cnn([C@@H]3CN[C@@H](C(=O)O)C3)c2)cc1-c1nc2ccccc2s1 [Example 174, (2R,4S)-4-[4-(6-Amino-5-benzothiazol-2-ylpyridin-3-yl)-pyrazol-1-yl]-pyrrolidine-2-carboxylic acid] | 4.70 to 6.00 | ≥ 7.00
CN(C)C(=O)[C@H]1C[C@H](n2cc(-c3cnc(N)c(-c4nc5ccccc5s4)c3)cn2)CN1 [Example 175, (2R,4S)-4-[4-(6-Amino-5-benzothiazol-2-ylpyridin-3-yl)-pyrazol-1-yl]-pyrrolidine-2-carboxylic acid dimethylamide] | 6.00 to 7.00 | 6.00 to 7.00
Nc1ncc(-c2cnn([C@@H]3CN[C@@H](C(=O)N4CCCC4)C3)c2)cc1-c1nc2ccccc2s1 [Example 176, {(2R,4S)-4-[4-(6-Amino-5-benzothiazol-2-ylpyridin-3-yl)-pyrazol-1-yl]-pyrrolidin-2-yl}-pyrrolidin-1-ylmethanone] | 6.00 to 7.00 | 6.00 to 7.00
Nc1ncc(-c2cnn([C@@H]3CN[C@@H](C(=O)N4CCC(O)C4)C3)c2)cc1-c1nc2ccccc2s1 (stereo partly drawn) [Example 177, {(2R,4S)-4-[4-(6-Amino-5-benzothiazol-2-ylpyridin-3-yl)-pyrazol-1-yl]-pyrrolidin-2-yl}-(3-hydroxypyrrolidin-1-yl)methanone] | 6.00 to 7.00 | ≥ 7.00
Nc1ncc(-c2cnn([C@@H]3CN[C@@H](C(=O)N4CCCCC4)C3)c2)cc1-c1nc2ccccc2s1 [Example 178, {(2R,4S)-4-[4-(6-Amino-5-benzothiazol-2-ylpyridin-3-yl)-pyrazol-1-yl]-pyrrolidin-2-yl}-piperidin-1-ylmethanone] | 6.00 to 7.00 | 6.00 to 7.00
Nc1ncc(-c2cnn([C@@H]3CN[C@@H](C(=O)N4CCOCC4)C3)c2)cc1-c1nc2ccccc2s1 [Example 179, {(2R,4S)-4-[4-(6-Amino-5-benzothiazol-2-ylpyridin-3-yl)-pyrazol-1-yl]-pyrrolidin-2-yl}-morpholin-4-ylmethanone] | 6.00 to 7.00 | ≥ 7.00
Nc1ncc(-c2cnn(C3CNC3)c2)cc1-c1nc2ccccc2s1 [Example 181, 5-(1-Azetidin-3-yl-1H-pyrazol-4-yl)-3-benzothiazol-2-ylpyridin-2-ylamine trifluoroacetate] | 6.00 to 7.00 | ≥ 7.00
CN1CCN(C(=O)c2ccc(-c3cnc(N)c(-c4nc5ccccc5s4)c3)cc2)CC1 [Example 182, [4-(6-Amino-5-benzothiazol-2-ylpyridin-3-yl)phenyl]-(4-methylpiperazin-1-yl)methanone] | 4.70 to 6.00 | 6.00 to 7.00

SMILES | pIC50 (RON (human)) | pIC50 (MET (human))
CN(C)C(=O)c1ccc(-c2cnc(N)c(-c3nc4ccccc4s3)c2)cc1 [Example 183, 4-(6-Amino-5-benzothiazol-2-ylpyridin-3-yl)-N,N-dimethylbenzamide] | 4.70 to 6.00 | 4.70 to 6.00
CN1CCN(C(=O)c2cccc(-c3cnc(N)c(-c4nc5ccccc5s4)c3)c2)CC1 [Example 184, [3-(6-Amino-5-benzothiazol-2-ylpyridin-3-yl)phenyl]-(4-methylpiperazin-1-yl)methanone] | 4.70 to 6.00 | 4.70 to 6.00
CN(C)CCNC(=O)c1ccc(-c2cnc(N)c(-c3nc4ccccc4s3)c2)cc1 [Example 185, 4-(6-Amino-5-benzothiazol-2-ylpyridin-3-yl)-N-(2-dimethylaminoethyl)benzamide] | 4.70 to 6.00 | 6.00 to 7.00
CN(C)C(=O)c1cccc(-c2cnc(N)c(-c3nc4ccccc4s3)c2)c1 [Example 186, 3-(6-Amino-5-benzothiazol-2-ylpyridin-3-yl)-N,N-dimethylbenzamide] | < 4.70 | 4.70 to 6.00
CN(C)CCNC(=O)c1cccc(-c2cnc(N)c(-c3nc4ccccc4s3)c2)c1 [Example 187, 3-(6-Amino-5-benzothiazol-2-ylpyridin-3-yl)-N-(2-dimethylaminoethyl)benzamide] | 4.70 to 6.00 | 4.70 to 6.00
CN(C)CCCOc1ccc(-c2cnc(N)c(-c3nc4ccccc4s3)c2)cn1 [Example 188, 5-Benzothiazol-2-yl-6′-(3-dimethylaminopropoxy)-[3,3′]bipyridinyl-6-ylamine] | 4.70 to 6.00 | 4.70 to 6.00
Nc1ncc(-c2ccc(C(=O)N3CCOCC3)cc2)cc1-c1nc2ccccc2s1 [Example 189, [4-(6-Amino-5-benzothiazol-2-ylpyridin-3-yl)phenyl]morpholin-4-ylmethanone] | 4.70 to 6.00 | 4.70 to 6.00
NC(=O)c1ccc(-c2cnc(N)c(-c3nc4ccccc4s3)c2)cc1 [Example 190, 4-(6-Amino-5-benzothiazol-2-ylpyridin-3-yl)benzamide] | < 4.70 | 4.70 to 6.00
CCN(CC)C(=O)c1ccc(-c2cnc(N)c(-c3nc4ccccc4s3)c2)cc1 [Example 191, 4-(6-Amino-5-benzothiazol-2-ylpyridin-3-yl)-N,N-diethylbenzamide] | < 4.70 | < 4.70
Nc1ncc(-c2cccc(C(=O)NCc3ccco3)c2)cc1-c1nc2ccccc2s1 [Example 192, 3-(6-Amino-5-benzothiazol-2-ylpyridin-3-yl)-N-furan-2-ylmethylbenzamide] | 4.70 to 6.00 | 4.70 to 6.00
Nc1ncc(-c2ccc(C(=O)NCc3ccco3)cc2)cc1-c1nc2ccccc2s1 [Example 193, 4-(6-Amino-5-benzothiazol-2-ylpyridin-3-yl)-N-furan-2-ylmethylbenzamide] | 4.70 to 6.00 | 4.70 to 6.00
CNC(=O)c1cccc(-c2cnc(N)c(-c3nc4ccccc4s3)c2)c1 [Example 194, 3-(6-Amino-5-benzothiazol-2-ylpyridin-3-yl)-N-methylbenzamide] | < 4.70 | < 4.70
Nc1ncc(-c2ccc(C(=O)N3CCCCC3)cc2)cc1-c1nc2ccccc2s1 [Example 195, [4-(6-Amino-5-benzothiazol-2-ylpyridin-3-yl)phenyl]piperidin-1-ylmethanone] | < 4.70 | < 4.70
NC(=O)c1cccc(-c2cnc(N)c(-c3nc4ccccc4s3)c2)c1 [Example 196, 3-(6-Amino-5-benzothiazol-2-ylpyridin-3-yl)benzamide] | 4.70 to 6.00 | 4.70 to 6.00
Nc1ncc(-c2cnn(CCN3CCOCC3)c2)cc1-c1nc2ccccc2s1 [Example 197, 3-Benzothiazol-2-yl-5-[1-(2-morpholin-4-ylethyl)-1H-pyrazol-4-yl]pyridin-2-ylamine] | 4.70 to 6.00 | 4.70 to 6.00
Nc1ncc(-c2ccc(C(=O)NC3CC3)cc2)cc1-c1nc2ccccc2s1 [Example 198, 4-(6-Amino-5-benzothiazol-2-ylpyridin-3-yl)-N-cyclopropylbenzamide] | < 4.70 | 4.70 to 6.00

Reference: US8178668B2, “2-aminopyridine kinase inhibitors” (OSI Pharmaceuticals, LLC, priority 2008, dated 2012)
